Results: ChEMBL document CHEMBL4330083, “Synthesis and evaluation of isoprenylation-resveratrol dimer derivatives against Alzheimer's disease” (Eur J Med Chem, 2019)

Experiments:
[1] = Antioxidant activity assessed as ferric ion reduction by measuring trolox equivalents after 3 to 5 mins by FRAP assay; format: functional
[2] = species: Homo sapiens; test: Selectivity ratio of IC50 for human MAO-A to IC50 for human MAO-B
[3] = Antioxidant activity assessed as ABTS radical cation scavenging activity by measuring trolox equivalents after 150 mins; format: functional
[4] = biological target: T1, Amine oxidase [flavin-containing] B (Homo sapiens, UniProt P27338)
T1 sequence (P27338 whole entry): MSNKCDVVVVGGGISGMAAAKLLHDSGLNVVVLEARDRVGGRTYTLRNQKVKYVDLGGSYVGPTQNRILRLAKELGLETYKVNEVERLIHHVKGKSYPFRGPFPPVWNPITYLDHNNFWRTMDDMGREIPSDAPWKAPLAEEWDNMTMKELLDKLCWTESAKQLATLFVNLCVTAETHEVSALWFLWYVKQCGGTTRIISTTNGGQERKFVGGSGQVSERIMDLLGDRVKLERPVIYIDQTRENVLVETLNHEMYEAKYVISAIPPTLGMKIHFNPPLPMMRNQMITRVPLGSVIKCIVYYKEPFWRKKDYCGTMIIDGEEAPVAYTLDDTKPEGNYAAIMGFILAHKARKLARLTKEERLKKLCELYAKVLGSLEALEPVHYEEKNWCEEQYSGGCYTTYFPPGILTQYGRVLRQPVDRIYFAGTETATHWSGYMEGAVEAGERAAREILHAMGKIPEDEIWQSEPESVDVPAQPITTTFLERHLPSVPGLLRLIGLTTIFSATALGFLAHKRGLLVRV

[5] = biological target: T2, Amine oxidase [flavin-containing] A (Homo sapiens, UniProt P21397); test: Inhibition of human MAO-A preincubated for 15 mins followed by p-tyramine substrate addition and measured after 20 mins by Amplex red reagent based fluorescence assay
T2 sequence (P21397 whole entry): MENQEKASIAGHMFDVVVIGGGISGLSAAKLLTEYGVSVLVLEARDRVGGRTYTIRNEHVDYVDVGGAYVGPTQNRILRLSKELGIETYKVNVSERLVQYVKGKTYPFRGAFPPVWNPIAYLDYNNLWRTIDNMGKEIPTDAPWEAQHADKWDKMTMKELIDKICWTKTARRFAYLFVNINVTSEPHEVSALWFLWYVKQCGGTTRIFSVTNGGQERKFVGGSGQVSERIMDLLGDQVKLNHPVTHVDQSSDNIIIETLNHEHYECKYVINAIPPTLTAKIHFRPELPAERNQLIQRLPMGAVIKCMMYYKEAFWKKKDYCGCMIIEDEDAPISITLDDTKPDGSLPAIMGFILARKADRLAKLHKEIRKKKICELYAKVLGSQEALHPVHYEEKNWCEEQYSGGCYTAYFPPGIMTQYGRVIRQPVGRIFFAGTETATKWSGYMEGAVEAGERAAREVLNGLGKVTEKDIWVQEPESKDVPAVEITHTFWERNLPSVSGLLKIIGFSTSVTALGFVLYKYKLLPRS

[6] = Antioxidant activity assessed as inhibition of DPPH free radical after 30 mins by UV-Visible spectrophotometric analysis; format: functional
[7] = in vitro; set-up: dose or concentration left out as unconfirmed; details: PAMPA
Description: Effective permeability of the compound at 100 mg/ml incubated for 16 hrs by PAMPA-BBB assay

SMILES	Activity [1]	Ratio IC50 [2]	Activity [3]	IC50 [4]	IC50 [5]	IC50 [6]	Papp at 16 h [7]
CC(C)=CCc1c(O)cc([C@@H](Oc2ccc(/C=C/c3cc(O)c4c(c3)OC(C)(C)CC4)cc2)[C@@H](C)c2ccc(O)cc2)cc1O	1.26 equiv	2.05	0.89 equiv	9.23 µM	18.9 µM	150 µM	
Oc1ccc([C@H]2Oc3ccc(/C=C/c4cc(O)cc(O)c4)cc3[C@@H]2c2cc(O)cc(O)c2)cc1		3.74		2.39 µM	8.93 µM	76.8 µM	
C[C@]12CC[C@@H]3c4ccc(O)cc4CC[C@H]3[C@@H]1CC[C@@H]2O [ESTRADIOL]							13.3 ×10⁻⁶ cm/s
Cc1c(C)c2c(c(C)c1O)CCC(C)(C(=O)O)O2 (stereo not given) [TROLOX]	1 equiv		1 equiv			49.8 µM	
CC(C)=CCc1c(O)cc(/C=C/c2ccc(O)cc2)cc1O [ARACHIDIN-2]	1.03 equiv	3.1	1.23 equiv	3.62 µM	11.3 µM	73.3 µM	
CO[C@@H](c1ccc(O)cc1)[C@H](Oc1ccc(/C=C/c2cc(O)c3c(c2)OC(C)(C)CC3)cc1)c1cc(O)c(CC=C(C)C)c(O)c1	1.04 equiv	5.58	0.29 equiv	1.9 µM	10.6 µM	185 µM	
Oc1ccc(/C=C/c2cc(O)cc(O)c2)cc1 [RESVERATROL]	0.98 equiv		1.07 equiv	5.01 µM		79.9 µM	
